Laboratory results published in article PMC8121435, “Cork-in-bottle mechanism of inhibitor binding to mammalian complex I” (Science Advances, 2021).

Tests used:
[1] = test system: human DHODH; design: method as in PMID 15044733, PMID 9313772; conditions: His-to-Ala mutation of the π-stacking partner; cited from earlier work
[2] = molecular target: T1, P. denitrificans complex I (Paracoccus denitrificans, UniProt P29916+P29918+P29920); assay: NADH:decylubiquinone oxidoreduction by purified P. denitrificans complex I; type: biochemical; conditions: dQ, pH 6.5
T1 construct: Complex I was purified from P. denitrificans strain Pd1222; endogenous in cells; host or cells: P. denitrificans strain Pd1222
Protocol: (§1) All catalytic activity assays were conducted at 32°C in 96-well plates using a Molecular Devices Spectramax 384 plus plate reader. Catalysis was initiated by addition of 200 μM NADH and monitored at 340 and 380 nm (ε340–380 = 4.81 mM^−1 cm^−1). Linear rates were measured for all assays, inhibitors were added from dimethyl sulfoxide stock solutions as required, and inhibitor-insensitive rates (using either 1 μM piericidin A or 1.4 μM IACS-2858) were subtracted from each measured rate. Membrane samples were prepared as described previously ([17], [20], [59], [60]), diluted to 20 μg ml^−1 in 10 mM tris-SO4 (pH 7.5) and 250 mM sucrose, and supplemented with 3 μM horse heart cytochrome c (except for P. denitrificans, for which the activity is unaffected by the addition). Mouse, bovine, and yeast (Y. lipolytica) complex I were purified as described previously ([17], [20], [59]); diluted to 0.5 nM in 20 mM tris-HCl (pH 7.5), 0.15% asolectin, and 0.15% CHAPS; and assayed using either 200 μM dQ or 200 μM ubiquinone-1 (Sigma-Aldrich). Complex I was purified from P. denitrificans strain Pd1222 ([61]) and provided by O. D. Jarman (MRC Mitochondrial Biology Unit, University of Cambridge); it was assayed likewise but in 10 mM MES-HCl (pH 6.5), 25 mM NaCl, and 2 mM CaCl2. […]

[3] = molecular target: T2, yeast (Y. lipolytica) complex I (Yarrowia lipolytica, UniProt Q9B6E8+Q9UUT7+Q9UUU1); assay: NADH:decylubiquinone oxidoreduction by purified Y. lipolytica complex I; type: biochemical
T2 sequence (Q9B6E8 1-341): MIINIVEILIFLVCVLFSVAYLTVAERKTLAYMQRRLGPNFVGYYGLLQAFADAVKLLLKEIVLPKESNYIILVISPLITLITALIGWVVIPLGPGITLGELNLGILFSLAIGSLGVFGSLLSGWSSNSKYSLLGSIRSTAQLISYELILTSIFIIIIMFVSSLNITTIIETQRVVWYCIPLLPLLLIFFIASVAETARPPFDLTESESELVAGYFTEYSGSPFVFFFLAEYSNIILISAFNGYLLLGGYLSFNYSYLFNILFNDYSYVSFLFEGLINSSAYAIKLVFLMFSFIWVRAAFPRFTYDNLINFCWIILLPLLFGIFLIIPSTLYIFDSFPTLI
T2 sequence (Q9UUU1 22-466): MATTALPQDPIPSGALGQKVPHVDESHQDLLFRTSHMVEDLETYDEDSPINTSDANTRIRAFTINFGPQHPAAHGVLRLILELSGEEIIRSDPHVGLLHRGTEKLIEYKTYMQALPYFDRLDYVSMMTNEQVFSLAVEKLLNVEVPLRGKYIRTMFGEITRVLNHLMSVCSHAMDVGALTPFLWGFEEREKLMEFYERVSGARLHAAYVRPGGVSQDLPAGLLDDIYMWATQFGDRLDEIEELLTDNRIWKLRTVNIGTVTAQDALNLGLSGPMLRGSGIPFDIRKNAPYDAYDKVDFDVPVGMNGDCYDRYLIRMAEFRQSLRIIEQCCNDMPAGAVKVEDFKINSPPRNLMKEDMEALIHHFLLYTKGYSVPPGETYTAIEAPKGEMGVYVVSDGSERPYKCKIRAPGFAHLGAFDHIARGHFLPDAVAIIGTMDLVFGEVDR
T2 sequence (Q9UUT7 28-210): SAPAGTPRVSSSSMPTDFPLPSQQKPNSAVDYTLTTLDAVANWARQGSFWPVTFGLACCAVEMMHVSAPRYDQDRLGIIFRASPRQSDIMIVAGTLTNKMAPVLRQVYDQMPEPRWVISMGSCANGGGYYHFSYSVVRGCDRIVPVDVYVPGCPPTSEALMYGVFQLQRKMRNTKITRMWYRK
Protocol: as §1

[4] = molecular target: T3, bovine complex I (Bos taurus, UniProt P03887+P17694+P42026); assay: NADH:decylubiquinone oxidoreduction by purified bovine complex I; type: biochemical; conditions: purified B. taurus complex I, dQ; ± SE
T3 construct: Complex I from bovine heart were prepared; from tissue; host or cells: bovine heart mitochondria
Protocol: as §1

[5] = test system: human cell line models and representative cell lines from mammalian species; design: method as in PMID 29892070; conditions: mouse, monkey, dog and rat cell lines; cited from earlier work
[6] = molecular target: T4, complex I in bacterial membranes (Paracoccus denitrificans, UniProt P29916+P29918+P29920); assay: NADH oxidation in P. denitrificans bacterial membranes; type: biochemical; conditions: P. denitrificans membranes 20 μg ml−1
T4 construct: Complex I was purified from P. denitrificans strain Pd1222; endogenous in cells; host or cells: P. denitrificans strain Pd1222
Protocol: as §1

[7] = molecular target: T5, complex I in mitochondrial membranes (Bos taurus, UniProt P03887+P17694+P42026); assay: NADH oxidation in bovine mitochondrial membranes; type: biochemical; conditions: B. taurus membranes 20 μg ml−1; ± SE
T5 construct: Complex I from bovine heart were prepared; from tissue; host or cells: bovine heart mitochondria
Protocol: as §1

[8] = molecular target: T6, mouse complex I (Mus musculus, UniProt P03888+Q91WD5+Q9DC70); assay: NADH:decylubiquinone oxidoreduction by purified mouse complex I; type: biochemical
T6 construct: from tissue; host or cells: mouse (C57BL/6) heart mitochondria
Protocol: (§2) All catalytic activity assays were conducted at 32°C in 96-well plates using a Molecular Devices Spectramax 384 plus plate reader. Catalysis was initiated by addition of 200 μM NADH and monitored at 340 and 380 nm (ε340–380 = 4.81 mM^−1 cm^−1). Linear rates were measured for all assays, inhibitors were added from dimethyl sulfoxide stock solutions as required, and inhibitor-insensitive rates (using either 1 μM piericidin A or 1.4 μM IACS-2858) were subtracted from each measured rate. Membrane samples were prepared as described previously ([17], [20], [59], [60]), diluted to 20 μg ml^−1 in 10 mM tris-SO4 (pH 7.5) and 250 mM sucrose, and supplemented with 3 μM horse heart cytochrome c (except for P. denitrificans, for which the activity is unaffected by the addition). Mouse, bovine, and yeast (Y. lipolytica) complex I were purified as described previously ([17], [20], [59]); diluted to 0.5 nM in 20 mM tris-HCl (pH 7.5), 0.15% asolectin, and 0.15% CHAPS; and assayed using either 200 μM dQ or 200 μM ubiquinone-1 (Sigma-Aldrich). Complex I was purified from P. denitrificans strain Pd1222 ([61]) and provided by O. D. Jarman (MRC Mitochondrial Biology Unit, University of Cambridge); it was assayed likewise but in 10 mM MES-HCl (pH 6.5), 25 mM NaCl, and 2 mM CaCl2. Bovine SMPs were prepared as described previously ([61]) and diluted to 20 μg ml^−1 in 10 mM tris-SO4 (pH 7.5) and 250 mM sucrose for FET and RET assays. The RET assay was initiated using 1 mM NAD^+, 1 mM ATP, 10 mM succinate, 1 mM cyanide, and 2 mM MgSO4, in the absence of NADH. AOX from Trypanosoma brucei brucei was prepared as described previously ([23]). Complex I proteoliposomes were assayed using 10 mM Mops-KOH (pH 7.5), 50 mM KCl, and AOX (10 μg ml^−1).

[9] = molecular target: T7, complex I in mitochondrial membranes (Yarrowia lipolytica, UniProt Q9B6E8+Q9UUT7+Q9UUU1); assay: NADH oxidation in Y. lipolytica mitochondrial membranes; type: biochemical
T7 sequence (Q9B6E8 1-341): T2 sequence (Q9B6E8 1-341)
T7 sequence (Q9UUU1 22-466): T2 sequence (Q9UUU1 22-466)
T7 sequence (Q9UUT7 28-210): T2 sequence (Q9UUT7 28-210)
Protocol: as §1

[10] = molecular target: T8, complex I in bovine SMPs (Bos taurus, UniProt P03887+P17694+P42026); assay: Forward electron transport (NADH oxidation) in bovine heart submitochondrial particles; type: biochemical; conditions: NADH oxidation rate, ± SE
T8 construct: Complex I from bovine heart were prepared; from tissue; host or cells: bovine heart mitochondria
Protocol: as §1

[11] = molecular target: T8, complex I in bovine SMPs; assay: Reverse electron transport (succinate oxidation-driven NAD+ reduction) in bovine heart submitochondrial particles; type: biochemical
Protocol: as §2

[12] = molecular target: T9, complex I in mitochondrial membranes (Mus musculus, UniProt P03888+Q91WD5+Q9DC70); assay: NADH oxidation in mouse mitochondrial membranes; type: biochemical; conditions: M. musculus membranes 20 μg ml−1; ± SE
T9 construct: from tissue; host or cells: mouse (C57BL/6) heart mitochondria
Protocol: as §1

[13] = test system: H292 cells; design: method as in PMID 29892070; conditions: Leu55 ND1 mutation to Phe in H292 cells; cited from earlier work

| SMILES | reduction of sensitivity [1] | IC50 [2] | IC50 [3] | IC50 [4] | variation in IC50 across cell lines [5] | IC50 [6] | IC50 [7] | higher IC50 value than IACS-2858 [8] | IC50 ([8]; purified mouse complex I ~0.5 nM, 200 μM dQ, 200 μM NADH, 32°C, Hill slope constrained to −1, ± SE) | IC50 [9] | IC50 [10] | IC50 ([11]; bovine SMPs, succinate oxidation-driven NAD+ reduction rate, ± SE) | inhibition of RET favoured over FET ([11]; bovine heart SMPs, RET versus FET) | IC50 [12] | loss of sensitivity [13] |
| --- | --- | --- | --- | --- | --- | --- | --- | --- | --- | --- | --- | --- | --- | --- | --- |
| Cc1c(-c2ccc(-c3ccccc3F)cc2)nc2ccc(F)cc2c1C(=O)O [brequinar] | more than 100 fold | – | – | – | – | – | – | – | – | – | – | – | – | – | – |
| Cc1nc(-c2nc(-c3ccc(OC(F)(F)F)cc3)no2)nn1Cc1cccc(N2CCC(S(C)(=O)=O)CC2)c1 [IACS-010759] | – | ~22000 µM | 6.3 ± 0.8 µM | 0.739 ± 0.065 µM | up to 230 fold | ~1600 µM | 0.113 ± 0.004 µM | 17 fold | 0.0479 µM | ~170 µM | 0.325 ± 0.025 µM | 0.0123 ± 0.0006 µM | more than 25 fold | 0.0069 ± 0.0004 µM | up to 70 fold |
